Experimental data from patent US7776572B2, “Method for reducing loss of enzyme activity during storage” (Corning Incorporated, priority 1996, dated 2010).

Key:
IgG protein = test: In-mold coating of 24-well polystyrene plates, protein binding by colloidal gold staining; settings: 1% isopropanol solution
Method: The in-mold coating aspects of the invention were tested by molding 24-well polystyrene plates. […] The 0.01% concentration was estimated to produce less than one monolayer of surfactant on the finished product, while the 0.1% concentration produced about 7 monolayers. The surfactant was applied to the mold using a Crown sprayer (Crown Industrial Products, Hebron, Ill.; Catalog #8011), which produces a sufficiently fine spray of droplets to uniformly coat the mold. The mold was sprayed before each part was made.

[1] = system: GAM-IgG-HRP (goat-anti-mouse-IgG-horseradish peroxidase enzyme labeled antibody); test: Bound enzyme labeled antibody on strips exposed to aqueous surfactant, rinsed or not rinsed, ABTS readout; settings: 0.1% surfactant in H2O/isopropanol (95/5), not dried
Method: Medium binding (catalog #2587) and high binding (catalog #2581) polystyrene 96-well plates (8-well strips) manufactured by Corning Costar were used as follows. […] Strips were incubated for 30 minutes at room temperature on a rocker table. Strips were then emptied and tapped out. […] Immediately following this procedure, each well was aliquoted 0.10 ml of GAM-IgG-HRP (goat-anti-mouse-IgG-horseradish peroxidase enzyme labeled antibody; Kirkegaard and Perry, Gaithersburg, Md., Catalog #074-1806) at 1.0 μg/ml in PBS buffer pH=7.4). Strips were incubated for one hour at room temperature on a rocker table. Strips were then rinsed 5× with PBS buffer containing 0.02% Tween-20 followed by post rinsing with H2O. […] Absorbance at 405 nm was measured on a Cambridge Technologies #7520 Plate Reader.

MDCK cells = test: MDCK cell attachment to coated polystyrene 24-well plates; format: cell-based; settings: coated PS 24-well, gamma sterilized, media with 5% FBS, two days, visual
Method: (§1) The procedures used were as follows. Polystyrene 24-well plates were coated with the non-ionic surfactants listed in Table 5 in accordance with the procedures described in Materials and Methods. Uncoated plates were used as a control. For comparison, plates with a covalently attached acrylamide coating (Corning Costar Catalog #2500) and with a stearic acid coating were also tested. The stearic acid coating was applied in the same manner as the non-ionic surfactants again using a 0.1% (w/v) solution.
(§2) The plates were gamma sterilized at 1.5 Mrad and then inoculated with 5.6×10^4 MDCK […] per well in 1 ml of complete media containing 5% FBS (Fetal Bovine Serum). Incubation was carried out at 37° C. in a 5% CO2 atmosphere for two days. The plates were fixed and stained, and cell attachment was noted. Following this, the wells were stained using the colloidal gold technique to detect bound protein. Only visual observations were made.
Experiments were also performed with cells suspended in serum. The cells used in these experiments were MDCK cells. The surfactants used were the same as used in Table 5. Again, reduced binding of the cells to surfaces treated with a non-ionic surfactant was observed.

IgG (horse) = test: IgG binding to 24-well plates, surfactant dried or not dried before H2O rinse, colloidal Au; settings: 0.5% surfactant in H2O/isopropanol (90/10)
Method: Duplicate 24-well plates were prepared as follows. Individual wells were filled with 3 ml of non-ionic surfactants at 0.5% (weight/volume) in H2O/isopropanol (90/10 weight/volume).
The duplicate plates were incubated for 30 minutes at room temperature on a rocker table and then emptied. One plate was tapped out and then allowed to dry at room temperature in a hood. It was then rinsed 5× with dI H2O. The second plate was not allowed to dry, but instead was immediately rinsed 5× with H2O. The plates were then tested for protein binding by filling each well with 0.5 ml of IgG (horse) at 10 μg/ml in PBS buffer and incubating for 30 minutes on a rocker table at room temperature. The plates were then rinsed with dI H2O and stained overnight with colloidal Au.

bound protein = test: Colloidal gold staining of bound protein after MDCK culture in media containing 5% FBS, visual; settings: colloidal gold after cell culture, visual observation
Method: as §1, §2

BSA = test: Polymer blends molded into petri dishes, BSA binding by colloidal gold; settings: blended at 5% into polypropylene; silver enhancer
Fetal Bovine Serum (FBS) = test: Polymer blends molded into petri dishes, FBS protein binding by colloidal gold; settings: blended at 5% into polypropylene; silver enhancer
Method: Low binding non-ionic surfactant molecules were blended at 5% (except as noted in Table 13) into a base polymer using a twin screw extruder, then injection molded into the shape of 35 mm petri dishes. Proteins tested were BSA and Fetal Bovine Serum (FBS). Protein binding was determined using a colloidal gold staining procedure as described above. In the case of the polypropylene and EVA blends, a silver enhancer was used (Sigma Chem. Co., St, Louis, Mo., Kit #SE-100).

IgG = test: Coating durability using water washes, IgG binding by colloidal gold
Method: Polystyrene plates having 24 wells (Corning Costar #9447) were coated with these surfactants as described in Materials and Methods. Durability was tested by adding dI H2O to the wells of a test plate (3.0 mls/well), following which the plate was placed on a rocker table. […] The protein solution was incubated with the plate on a rocker table for 30 minutes at 23° C., following which the plate was H2O rinse 3× (3 mls each time). The colloidal gold staining procedure described above was used to reveal bound protein. The staining comprised an overnight incubation on a rocker table at 23° C., a dI H2O rinse, drying at room temperature, and reading at 550 nm.

protein binding of in-mold coated part (IgG protein) | Absorbance (550 nm) Dried before H2O rinse (IgG (horse); dried, then rinsed 5x) | Absorbance (550 nm) H2O rinsed before drying (IgG (horse); not dried, rinsed 5x immediately) | Bound Protein Absorbance (550 nm) BSA (BSA) | Bound Protein Absorbance (550 nm) FBS (Fetal Bovine Serum (FBS)) | Absorbance (550 nm) Initial (IgG; coated polystyrene, no water wash) | Absorbance (550 nm) 1 Time 1 hr 23° C. (IgG; dI H2O wash 1 time, 1 hr, 23° C.) | Absorbance (550 nm) 1 Time 24 hr 23° C. (IgG; dI H2O wash 1 time, 24 hr, 23° C.) | Absorbance (550 nm) 1 Time 24 hr 37° C. (IgG; dI H2O wash 1 time, 24 hr, 37° C.) | Absorbance (550 nm) 1 Time 24 hr 70° C. (IgG; dI H2O wash 1 time, 24 hr, 70° C.) | Absorbance (550 nm) 6 Times 30 min each 23° C. (IgG; dI H2O wash 6 times, 30 min each, 23° C.) | Compound | Absorbance (405 nm) High Binding Polystyrene No Rinse ([1]; not rinsed) | Absorbance (405 nm) Medium Binding Polystyrene No Rinse ([1]; not rinsed) | Absorbance (405 nm) High Binding Polystyrene Rinsed ([1]; rinsed 5x with dI H2O) | Absorbance (405 nm) Medium Binding Polystyrene Rinsed ([1]; rinsed 5x with dI H2O) | MDCK Attachment (MDCK cells) | Visual Color Upon Protein Staining (bound protein)
low protein binding | – | – | – | – | – | – | – | – | – | – | CCCCCCCCCCCCCCCCCC(=O)OCC(O)CO (centres unmarked) [GLYCEROL MONO-STEARATE] | – | – | – | – | – | –
– | 0.14-0.16 | 0.13-0.16 | 0.153 | 0.270 | 0.00 | 0.02 | 0.05 | 0.10 | 0.10 | 0.10 | PEO(20) SORBITOL MONO-LAURATE | 0.00 | 0.00 | 2.00 | 1.90 | None | None
